Test results taken from ChEMBL document CHEMBL4152322, “Dihydropyrimidinone/1,2,3-triazole hybrid molecules: Synthesis and anti-varicella-zoster virus (VZV) evaluation” (Eur J Med Chem, 2018).
The source made the active and inactive calls. No cut-off for these calls is given here.

How the values were obtained:
Human alphaherpesvirus 3 [1] = assay: Antiviral activity against thymidine kinase expressing Varicella-Zoster virus Oka infected in human HEL cells assessed as reduction in plaque formation after 5 days; format: functional, organism-based; conditions: Human alphaherpesvirus 3, strain Oka vaccine, 120 h
Human alphaherpesvirus 3 [2] = assay: Antiviral activity against thymidine kinase deficient Varicella-Zoster virus 07-1 infected in human HEL cells assessed as reduction in plaque formation after 5 days; format: functional, organism-based; conditions: Human alphaherpesvirus 3, 07-1, HEL, 120 h
[3] = Cytostatic activity against human HEL cells after 3 days by coulter counter method; format: ADME, cell-based
Human betaherpesvirus 5 [4] = assay: Antiviral activity against HCMV Davis infected in human HEL cells assessed as reduction in virus-induced cytopathic effect after 7 days; format: functional, organism-based
Human betaherpesvirus 5 [5] = assay: Antiviral activity against HCMV AD169 infected in human HEL cells assessed as reduction in virus-induced cytopathic effect after 7 days; format: functional, organism-based

| SMILES | EC50 (Human alphaherpesvirus 3 [1]) | EC50 (Human alphaherpesvirus 3 [2]) | CC50 at 72 h [3] | Activity (Human betaherpesvirus 5 [4]) | Activity (Human betaherpesvirus 5 [5]) |
| --- | --- | --- | --- | --- | --- |
| Nc1nc2c(ncn2COCCO)c(=O)[nH]1 [ACYCLOVIR] | 2.35 µM | 133 µM | > 440 µM |  |  |
| O=c1[nH]c(=O)n([C@H]2C[C@H](O)[C@@H](CO)O2)cc1/C=C/Br [BRIVUDINE] | 0.025 µM | 104 µM | > 300 µM |  |  |
| CC(=O)C1=C(C)N(Cc2cn(Cc3ccccc3)nn2)C(=O)N(Cc2cn(Cc3ccccc3)nn2)C1c1ccc(N(C)C)cc1 (stereo unspecified) | 23.2 µM | 17 µM |  | inactive | inactive |
| CC(=O)C1=C(C)N(Cc2cn(Cc3ccccc3)nn2)C(=O)N(Cc2cn(Cc3ccccc3)nn2)C1c1ccccc1 (stereo unspecified) | 8.38 µM | 6.08 µM | 7.02 µM | inactive | inactive |
| CC(=O)C1=C(C)N(Cc2cn(Cc3ccc([N+](=O)[O-])cc3)nn2)C(=O)N(Cc2cn(Cc3ccc([N+](=O)[O-])cc3)nn2)C1c1ccccc1 (stereo unspecified) | 3.62 µM | 7.85 µM | > 100 µM | inactive | inactive |
| COc1ccc(OC)c(C2NC(=O)N(Cc3cn(Cc4ccc([N+](=O)[O-])cc4)nn3)C(C)=C2C(C)=O)c1 (stereo unspecified) | 44.7 µM | 48.1 µM |  | inactive | inactive |
| CC(=O)C1=C(C)N(Cc2cn(Cc3ccc([N+](=O)[O-])cc3)nn2)C(=O)NC1c1ccccc1 (stereo unspecified) | 48.9 µM | 42.6 µM |  | inactive | inactive |
| COc1ccc(OC)c(C2C(C(C)=O)=C(C)N(Cc3cn(Cc4ccccc4)nn3)C(=O)N2Cc2cn(Cc3ccccc3)nn2)c1 (stereo unspecified) | 9.85 µM | 8.87 µM | > 100 µM | inactive | inactive |
| COc1ccc(OC)c(C2NC(=O)N(Cc3cn(Cc4ccccc4)nn3)C(C)=C2C(C)=O)c1 (stereo unspecified) | 48.9 µM | 50.2 µM |  | inactive | inactive |
| CC(=O)C1=C(C)N(Cc2cn(Cc3ccc([N+](=O)[O-])cc3)nn2)C(=O)N(Cc2cn(Cc3ccc([N+](=O)[O-])cc3)nn2)C1c1ccc(OCc2cn(Cc3ccc([N+](=O)[O-])cc3)nn2)cc1 (stereo unspecified) | 69.9 µM | > 20 µM |  | inactive | inactive |
| CC(=O)C1=C(C)N(Cc2cn(Cc3ccccc3)nn2)C(=O)NC1c1ccc(OCc2cn(Cc3ccccc3)nn2)cc1 (stereo unspecified) | 11.3 µM | 10.8 µM | > 100 µM | inactive | inactive |
